Assay results taken from the supplement of paper PMC10307832.

Legend:
Assay in all cases: relative viability (nuclei count vs DMSO), 5 days (fraction); higher = more cells survive
[1] = tested on: NCI-H650
Outline: (§1)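 Dosing by pin tool came one day after lung cancer cell lines were seeded in 1536-well plates, using either one drug or a fixed anchor-drug dose plus five library-drug doses (not always all listed) in √10 steps. After 5 days, nuclei were counted on 4× images. Relative viability is treated-well nuclei count divided by vehicle-well nuclei count, and values are medians of duplicate plates.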

[2] = tested on: LOU-NH91
Outline: as §1

[3] = tested on: HCC-78
Outline: as §1

[4] = tested on: NCI-H838
Outline: as §1

[5] = tested on: NCI-H1734
Outline: as §1

[6] = tested on: NCI-H1915
Outline: as §1

[7] = tested on: NCI-H2023
Outline: as §1

[8] = tested on: A-427
Outline: as §1

[9] = tested on: NCI-H661
Outline: as §1

[10] = tested on: NCI-H3122
Outline: as §1

[11] = tested on: NCI-H596
Outline: as §1

[12] = tested on: ChaGo-K-1
Outline: as §1

[13] = tested on: HOP-62
Outline: as §1

[14] = tested on: HCC-366
Outline: as §1

[15] = tested on: COR-L23
Outline: as §1

[16] = tested on: EKVX
Outline: as §1

[17] = tested on: NCI-H1650
Outline: as §1

[18] = tested on: NCI-H2087
Outline: as §1

[19] = tested on: HCC-44
Outline: as §1

[20] = tested on: EPLC-272H
Outline: as §1

Compound O=C(O)CCCCC(CCSCc1ccccc1)SCc1ccccc1 (stereo not given) [CPI-613] + CC(C)C[C@H](NC(=O)[C@H](Cc1ccccc1)NC(=O)c1cnccn1)B(O)O [Bortezomib] (partner 0.002 µM) has a relative viability ([1]; first compound 5 µM) of 0.828, a relative viability ([1]; first compound 15.81 µM) of 0.617 and a relative viability ([1]; first compound 50 µM) of 0.92. It also gave a relative viability ([1]; first compound 158.11 µM) of 0.689, a relative viability ([1]; first compound 500 µM) of 0.452 and a relative viability ([2]; first compound 5 µM) of 0.49. It also gave a relative viability ([2]; first compound 15.81 µM) of 0.524, a relative viability ([2]; first compound 50 µM) of 0.393 and a relative viability ([2]; first compound 158.11 µM) of 0.435. The relative viability ([2]; first compound 500 µM) was 0.467, the relative viability ([3]; first compound 5 µM) was 0.5 and the relative viability ([3]; first compound 15.81 µM) was 0.397. For the same compound, the relative viability ([3]; first compound 50 µM) was 0.553, the relative viability ([3]; first compound 158.11 µM) was 0.445 and the relative viability ([3]; first compound 500 µM) was 0.602. It also gave a relative viability ([4]; first compound 5 µM) of 0.867, a relative viability ([4]; first compound 15.81 µM) of 0.702 and a relative viability ([4]; first compound 50 µM) of 1.02. For the same compound, the relative viability ([4]; first compound 158.11 µM) was 0.425, the relative viability ([4]; first compound 500 µM) was 0.0658 and the relative viability ([5]; first compound 5 µM) was 0.858. It also gave a relative viability ([5]; first compound 15.81 µM) of 0.846, a relative viability ([5]; first compound 50 µM) of 0.877 and a relative viability ([5]; first compound 158.11 µM) of 0.278. The relative viability ([5]; first compound 500 µM) was 0.101, the relative viability ([6]; first compound 5 µM) was 0.992 and the relative viability ([6]; first compound 15.81 µM) was 0.99. The relative viability ([6]; first compound 50 µM) was 0.946, the relative viability ([6]; first compound 158.11 µM) was 0.799 and the relative viability ([6]; first compound 500 µM) was 0.746. The relative viability ([7]; first compound 5 µM) was 0.932, the relative viability ([7]; first compound 15.81 µM) was 0.947 and the relative viability ([7]; first compound 50 µM) was 0.961. For the same compound, the relative viability ([7]; first compound 158.11 µM) was 0.042, the relative viability ([7]; first compound 500 µM) was 0.0072 and the relative viability ([8]; first compound 5 µM) was 0.939. For the same compound, the relative viability ([8]; first compound 15.81 µM) was 0.901, the relative viability ([8]; first compound 50 µM) was 0.96 and the relative viability ([8]; first compound 158.11 µM) was 0.761. The relative viability ([8]; first compound 500 µM) was 0.253, the relative viability ([9]; first compound 5 µM) was 0.749 and the relative viability ([9]; first compound 15.81 µM) was 0.66. For the same compound, the relative viability ([9]; first compound 50 µM) was 0.85, the relative viability ([9]; first compound 158.11 µM) was 0.709 and the relative viability ([9]; first compound 500 µM) was 0.709. For the same compound, the relative viability ([10]; first compound 5 µM) was 0.973, the relative viability ([10]; first compound 15.81 µM) was 1.04 and the relative viability ([10]; first compound 50 µM) was 1.01. The relative viability ([10]; first compound 158.11 µM) was 0.939, the relative viability ([10]; first compound 500 µM) was 0.281 and the relative viability ([11]; first compound 5 µM) was 0.972. It also gave a relative viability ([11]; first compound 15.81 µM) of 0.934, a relative viability ([11]; first compound 50 µM) of 1 and a relative viability ([11]; first compound 158.11 µM) of 0.779. The relative viability ([11]; first compound 500 µM) was 0.208, the relative viability ([12]; first compound 5 µM) was 0.836 and the relative viability ([12]; first compound 15.81 µM) was 0.855. It also gave a relative viability ([12]; first compound 50 µM) of 0.804, a relative viability ([12]; first compound 158.11 µM) of 0.671 and a relative viability ([12]; first compound 500 µM) of 0.554. The relative viability ([13]; first compound 5 µM) was 0.511, the relative viability ([13]; first compound 15.81 µM) was 0.545 and the relative viability ([13]; first compound 50 µM) was 1.26. The relative viability ([13]; first compound 158.11 µM) was 0.464, the relative viability ([13]; first compound 500 µM) was 0.0422 and the relative viability ([14]; first compound 5 µM) was 1.01. The relative viability ([14]; first compound 15.81 µM) was 0.957, the relative viability ([14]; first compound 50 µM) was 1.06 and the relative viability ([14]; first compound 158.11 µM) was 0.391. It also gave a relative viability ([14]; first compound 500 µM) of 0.0068, a relative viability ([15]; first compound 5 µM) of 0.938 and a relative viability ([15]; first compound 15.81 µM) of 0.941. It also gave a relative viability ([15]; first compound 50 µM) of 1, a relative viability ([15]; first compound 158.11 µM) of 0.408 and a relative viability ([15]; first compound 500 µM) of 0.0074. It also gave a relative viability ([16]; first compound 5 µM) of 0.864, a relative viability ([16]; first compound 15.81 µM) of 0.957 and a relative viability ([16]; first compound 50 µM) of 1.05. For the same compound, the relative viability ([16]; first compound 158.11 µM) was 0.548, the relative viability ([16]; first compound 500 µM) was 1.04 and the relative viability ([17]; first compound 5 µM) was 0.196. The relative viability ([17]; first compound 15.81 µM) was 0.204, the relative viability ([17]; first compound 50 µM) was 0.187 and the relative viability ([17]; first compound 158.11 µM) was 0.0869. It also gave a relative viability ([17]; first compound 500 µM) of 0.0195, a relative viability ([18]; first compound 5 µM) of 0.838 and a relative viability ([18]; first compound 15.81 µM) of 0.725. It also gave a relative viability ([18]; first compound 50 µM) of 0.827, a relative viability ([18]; first compound 158.11 µM) of 0.33 and a relative viability ([18]; first compound 500 µM) of 0.016. The relative viability ([19]; first compound 5 µM) was 0.878, the relative viability ([19]; first compound 15.81 µM) was 0.832 and the relative viability ([19]; first compound 50 µM) was 0.913. For the same compound, the relative viability ([19]; first compound 158.11 µM) was 0.596, the relative viability ([19]; first compound 500 µM) was 0.0155 and the relative viability ([20]; first compound 5 µM) was 0.937. For the same compound, the relative viability ([20]; first compound 15.81 µM) was 0.859, the relative viability ([20]; first compound 50 µM) was 1.1 and the relative viability ([20]; first compound 158.11 µM) was 0.778. The relative viability ([20]; first compound 500 µM) was 0.93.
